Measurements from the NIST ThermoML archive (doi:10.1021/je700404u).
Numbers after ± are expanded uncertainties.

Key:
[1] = refractive index (Na D-line) (dimensionless); details: 293.15 K; 101.33 kPa; Liquid; Standard Abbe refractometry
[2] = 293.15 K; 101.33 kPa; Liquid

| Structure (SMILES) | refractive index [1] | mass density [2] [kg/m3] |
| --- | --- | --- |
| CCOCCO [2-ethoxyethan-1-ol] | 1.4065 ± 0.0007 | 929 ± 1 |
| CC(C)=O [acetone] | 1.359 ± 0.0007 | 790 ± 1 |
| CCO [ethanol] | 1.3619 ± 0.0007 | 789 ± 1 |
| CO [methanol] | 1.3287 ± 0.0007 | 791 ± 1 |
